PubChem BioAssay (NCI)
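In this assay, cells in 96-well plates receive the compound at five concentrations for 48 hours. Endpoints are linearly interpolated between the surrounding concentrations. GI50 = concentration required for 50% inhibition of growth. The concentration for full growth arrest is given as TGI.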

Experiments:
Assay in all cases: inhibition of tumour cell growth, NCI panel, 48 h
SF-268 CNS = test system: SF-268 CNS
UO-31 renal = test system: UO-31 renal
BT-549 breast = test system: BT-549 breast
A498 renal = test system: A498 renal
786-0 renal = test system: 786-0 renal
PC-3 prostate = test system: PC-3 prostate
MDA-MB-231 breast = test system: MDA-MB-231 breast
HCT-116 colon = test system: HCT-116 colon
DMS 273 small cell lung = test system: DMS 273 small cell lung
M19-MEL melanoma = test system: M19-MEL melanoma

Compound	GI50 (SF-268 CNS)	TGI (SF-268 CNS)	GI50 (UO-31 renal)	TGI (UO-31 renal)	GI50 (BT-549 breast)	TGI (BT-549 breast)	GI50 (A498 renal)	TGI (A498 renal)	GI50 (786-0 renal)	TGI (786-0 renal)	GI50 (PC-3 prostate)	TGI (PC-3 prostate)	GI50 (MDA-MB-231 breast)	TGI (MDA-MB-231 breast)	GI50 (HCT-116 colon)	TGI (HCT-116 colon)	TGI (DMS 273 small cell lung)	TGI (M19-MEL melanoma)
COc1ccc(F)cc1C(=O)c1cnc(NC2CCN(S(C)(=O)=O)CC2)nc1N	4.58 µM	18.1 µM	3.69 µM	> 18.6 µM	4.11 µM	14.3 µM	3.22 µM	8.06 µM	5.03 µM	> 25 µM	2.79 µM	18.1 µM	2.49 µM	> 25 µM	1.21 µM	> 25 µM		
C/C(=C\c1ccn(-c2ccc(N)cc2)n1)[C@@H]1C[C@@H]2O[C@]2(C)CCC[C@H](C)[C@H](O)[C@@H](C)C(=O)C(C)(C)[C@@H](O)CC(=O)O1	0.118 µM	> 50 µM	0.251 µM	> 50 µM	0.138 µM	> 50 µM	0.102 µM	3.66 µM	0.174 µM	> 50 µM	0.0313 µM	> 50 µM	0.252 µM	> 50 µM	0.0189 µM	> 50 µM		
CO[C@H](C(=O)N[C@@H](CCCCNC(=O)OCc1ccccc1)C(=O)OC(C)(C)C)[C@@H]1Cc2cc3cc(OC4CC(OC5CC(O)C(O)C(C)O5)C(O)C(C)O4)c(C)c(O)c3c(O)c2C(=O)[C@H]1OC1CC(OC2CC(OC3CC(C)(O)C(O)C(C)O3)C(O)C(C)O2)C(O)C(C)O1 (stereo not given in full)	0.624 µM	2.03 µM	1.57 µM	8.18 µM	0.518 µM	1.81 µM	0.64 µM	2.03 µM	0.563 µM	1.88 µM	0.7 µM	8.67 µM	0.939 µM	3.1 µM	0.397 µM	1.63 µM		
O=C(NCC#CCO)C(F)(F)F		> 100 µM		> 100 µM				> 100 µM		> 100 µM						> 100 µM	> 100 µM	
Cc1ccc(NC(=O)c2ccnc(N3CCCC3)c2)cc1-c1ccc(C(=O)NCC2CC2)cc1	> 25 µM	> 25 µM	> 25 µM	> 25 µM	> 25 µM	> 25 µM	> 25 µM	> 25 µM	> 25 µM	> 25 µM	> 25 µM	> 25 µM	10 µM	> 25 µM	> 23.8 µM	> 25 µM		
COC(=O)C#Cc1ccc([N+](=O)[O-])cc1		14 µM		2.85 µM		3.34 µM		22.6 µM		7.04 µM		13.1 µM		4.08 µM		3.46 µM		
COc1cc2c(cc1OC)[C@@]1(C)C(=O)c3cc4c(cc3[C@H]1N(C)C2=O)OCO4	64.6 µM	> 100 µM	34.8 µM	> 100 µM	29 µM	> 100 µM	18.6 µM	90.7 µM	54.3 µM	> 100 µM	75.2 µM	> 100 µM	25 µM	> 100 µM	43.6 µM	> 100 µM		
[N-]=[N+]=CC(=O)OCC(N)C(=O)O (stereo not given)	1.89 µM	> 100 µM	4.92 µM	> 100 µM	16.7 µM	> 100 µM	57.6 µM	> 100 µM	0.856 µM	> 100 µM	2.42 µM	> 100 µM	0.763 µM	> 100 µM	0.448 µM	> 100 µM		
O=C(/C=C\Sc1nccc(C(F)(F)F)n1)c1ccc(Br)cc1	33.2 µM	> 100 µM	18.7 µM	34 µM	44.6 µM	> 100 µM	> 100 µM	> 100 µM	16.3 µM	34.2 µM	15.4 µM	29.4 µM	19.1 µM	44.4 µM	12.8 µM	25.5 µM		
Cc1ccc(S(=O)(=O)N/N=C(\C(=O)Nc2cccc([N+](=O)[O-])c2)c2nc3ccc([N+](=O)[O-])cc3[nH]c2=O)cc1		> 100 µM		> 100 µM				> 100 µM		> 100 µM						> 100 µM		> 100 µM
C/C(=C\c1c[nH]c2ccccc12)[N+](=O)[O-]	4.16 µM	19.2 µM	4.85 µM	17.7 µM	11 µM	24 µM	14.9 µM	29.6 µM	4.27 µM	15.5 µM	4.07 µM	15.4 µM	11.4 µM	24.5 µM	2.37 µM	8.08 µM		
CN1CCN(Cc2ccc(NC(=O)c3cncc(C#Cc4c(N)ncc5cc(F)ccc45)c3)cc2C(F)(F)F)CC1	0.884 µM	1.9 µM	1.44 µM	5.06 µM	4.86 µM	12.6 µM	0.839 µM	3.99 µM	0.892 µM	1.63 µM	0.747 µM	1.53 µM	0.477 µM	1.13 µM	0.595 µM	1.26 µM		
ON(CCc1ccccn1)Cc1ccccc1		> 100 µM		> 100 µM		> 100 µM		> 100 µM		> 100 µM		> 100 µM		> 100 µM		> 100 µM		
COc1cccc2c1c1nc3cc(C)c(C)cc3nc1n2CCN(C)C	2.13 µM	7.45 µM	0.337 µM	2.37 µM	2.36 µM	10.2 µM	0.533 µM	1.9 µM	1.35 µM	5.53 µM	1.73 µM	11.6 µM	1.87 µM	9.52 µM	0.426 µM	10.3 µM		
O=C(Nc1ccc(Br)c(Cl)c1)c1cc(F)ccc1O	0.996 µM	> 33.6 µM	0.153 µM	1.89 µM	0.525 µM	2.7 µM	0.162 µM	1.03 µM	1.06 µM	5.73 µM	1.25 µM	> 14.8 µM	0.76 µM	2.61 µM	0.423 µM	2.08 µM		
Cc1c(Cl)ccc2c1NC(=O)C2(O)C1Cc2ccccc2C1=O (stereo not given)		> 100 µM		> 100 µM				> 100 µM		> 100 µM						> 100 µM		> 100 µM
